Consider 15 molecules from ChEMBL document CHEMBL3098101, “Fragment based discovery of arginine isosteres through REPLACE: towards non-ATP competitive CDK inhibitors” (Bioorg Med Chem, 2014).

The structures appear in SMILES notation. Where a SMILES comes first, the peptide text is derived from it. [ ]: non-standard residue; d: D form. The star is where a group is joined. Furoyl(5-pyrazol-1-ylmethyl) = O=C(c1ccc(Cn2cccn2)o1)*; Phe(4-F) = N[C@@H](Cc1ccc(F)cc1)C(=O)O; Picolinoyl(6-Me) = Cc1cccc(C(=O)*)n1; X13 = CN1CCN(Cc2ccc(C(=O)*)o2)CC1; X1 = Cc1cnn(Cc2ccc(C(=O)*)o2)c1; X11 = CCN(CC)Cc1ccc(C(=O)*)o1; X12 = O=C(c1csc(-c2cccs2)n1)*; X14 = O=C(c1csc(-c2ccsc2)n1)*; X15 = CCOc1ccc(CC(=O)*)cc1OCC; X7 = CC(C)COc1ccc(CC(=O)*)cc1; X4 = O=C(c1ccc(Cn2ccnc2)o1)*; Picolinoyl = O=C(c1ccccn1)*; X16 = CCOc1ccc(CC(=O)*)cc1; X9 = CCCOc1ccc(CC(=O)*)cc1; X10 = CCOc1cccc(C(=O)*)n1; X8 = COc1cccc(C(=O)*)n1 Some results are limits rather than exact numbers.

In assay [1] the target is Cyclin-dependent kinase 4/cyclin D1 (Homo sapiens, UniProt P24385). Kind of assay: Inhibition of human recombinant CDK4/cyclin D1 using fluoresceinyl-Ahx-Pro-Val-Lys-Arg-Arg-Leu-(3ClPhe)-Gly as substrate after 45 mins by fluorescence polarization assay. The class given is protein-complex assay. For orientation: Polarisation of emitted light reports the rotation of a fluorescent probe.

The target in another assay is CDK2/Cyclin A2 (Homo sapiens, UniProt P24941). Kind of assay: Inhibition of human recombinant CDK2/cyclin A using fluoresceinyl-Ahx-Pro-Val-Lys-Arg-Arg-Leu-Phe-Gly as substrate after 45 mins by fluorescence polarization assay. Type of assay: protein-complex assay.

Sequence of Cyclin-dependent kinase 4/cyclin D1 (P11802 whole entry): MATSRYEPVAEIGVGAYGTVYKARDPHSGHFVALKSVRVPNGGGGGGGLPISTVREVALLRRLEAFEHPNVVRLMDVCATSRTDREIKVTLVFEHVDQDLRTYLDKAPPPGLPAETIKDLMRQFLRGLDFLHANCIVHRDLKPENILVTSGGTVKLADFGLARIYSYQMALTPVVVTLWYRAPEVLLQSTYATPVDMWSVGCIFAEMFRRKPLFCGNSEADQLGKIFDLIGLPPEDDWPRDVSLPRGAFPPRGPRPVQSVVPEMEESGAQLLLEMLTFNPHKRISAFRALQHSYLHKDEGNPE
Sequence of Cyclin-dependent kinase 4/cyclin D1 (P24385 whole entry): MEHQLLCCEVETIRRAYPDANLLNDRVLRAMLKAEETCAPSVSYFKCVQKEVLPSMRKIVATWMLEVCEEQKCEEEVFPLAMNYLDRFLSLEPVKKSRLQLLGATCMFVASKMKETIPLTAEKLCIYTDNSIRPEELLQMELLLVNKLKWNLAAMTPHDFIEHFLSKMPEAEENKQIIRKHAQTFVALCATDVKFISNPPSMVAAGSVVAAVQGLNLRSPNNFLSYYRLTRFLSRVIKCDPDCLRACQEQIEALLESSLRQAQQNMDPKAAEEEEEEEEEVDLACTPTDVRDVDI

As to `CC(C)C[C@H](NC(=O)[C@H](CCCN=C(N)N)NC(=O)c1ccccn1)C(=O)N[C@@H](CC(N)=O)C(=O)N[C@@H](Cc1ccc(F)cc1)C(=O)O` (Picolinoyl-RLN[Phe(4-F)]-OH), the results for the IC50 (in assay [1]; at CDK2/Cyclin A2) were 48.4 µM and 29.2 µM, respectively.
In the same order, the values of `CC[C@H](C)[C@H](NC(=O)[C@H](CC(C)C)NC(=O)[C@H](CCCN=C(N)N)NC(=O)c1ccc(Cn2cc(C)cn2)o1)C(=O)N[C@@H](Cc1ccccc1)C(=O)O` (X1-RLIF-OH) are > 180 µM and > 100 µM.
In the same order, the values of `CC[C@H](C)[C@H](NC(=O)[C@H](CC(C)C)NC(=O)[C@H](CCCN=C(N)N)NC(=O)c1ccc(Cn2ccnc2)o1)C(=O)N[C@@H](Cc1ccccc1)C(=O)O` (X4-RLIF-OH) are 159 µM and > 100 µM.
On the same counts, the results for `CC(C)COc1ccc(CC(=O)N[C@@H](CCCNC(=N)N)C(=O)N[C@@H](CC(C)C)C(=O)N[C@@H](CC(N)=O)C(=O)N[C@@H](Cc2ccc(F)cc2)C(=O)O)cc1` (X7-RLN[Phe(4-F)]-OH) are > 100 µM and > 100 µM.
`COc1cccc(C(=O)N[C@@H](CCCN=C(N)N)C(=O)N[C@@H](CC(C)C)C(=O)N[C@@H](CC(N)=O)C(=O)N[C@@H](Cc2ccc(F)cc2)C(=O)O)n1` (X8-RLN[Phe(4-F)]-OH): the IC50 in assay [1] came to 36.9 µM; at CDK2/Cyclin A2, 36.4 µM.
On the same counts, the results for `CCCOc1ccc(CC(=O)N[C@@H](CCCN=C(N)N)C(=O)N[C@@H](CC(C)C)C(=O)N[C@@H](CC(N)=O)C(=O)N[C@@H](Cc2ccc(F)cc2)C(=O)O)cc1` (X9-RLN[Phe(4-F)]-OH) are > 50 µM and > 100 µM.
In the same order, the values of `CCOc1cccc(C(=O)N[C@@H](CCCNC(=N)N)C(=O)N[C@@H](CC(C)C)C(=O)N[C@@H](CC(N)=O)C(=O)N[C@@H](Cc2ccc(F)cc2)C(=O)O)n1` (X10-RLN[Phe(4-F)]-OH) are > 100 µM and 39.7 µM.
For `CC[C@H](C)[C@H](NC(=O)[C@H](CC(C)C)NC(=O)[C@H](CCCNC(=N)N)NC(=O)c1ccc(CN(CC)CC)o1)C(=O)N[C@@H](Cc1ccccc1)C(=O)O` (X11-RLIF-OH), the IC50 amounted to 41.9 µM in assay [1] and 43.5 µM on CDK2/Cyclin A2.
In the same order, the values of `CC[C@H](C)[C@H](NC(=O)[C@H](CC(C)C)NC(=O)[C@H](CCCNC(=N)N)NC(=O)c1csc(-c2cccs2)n1)C(=O)N[C@@H](Cc1ccccc1)C(=O)O` (X12-RLIF-OH) are > 180 µM and > 180 µM.
On the same counts, the results for `CC[C@H](C)[C@H](NC(=O)[C@H](CC(C)C)NC(=O)[C@H](CCCNC(=N)N)NC(=O)c1ccc(CN2CCN(C)CC2)o1)C(=O)N[C@@H](Cc1ccccc1)C(=O)O` (X13-RLIF-OH) are 43.2 µM and 50.3 µM.
On the same counts, the results for `CC[C@H](C)[C@H](NC(=O)[C@H](CC(C)C)NC(=O)[C@H](CCCN=C(N)N)NC(=O)c1csc(-c2ccsc2)n1)C(=O)N[C@@H](Cc1ccccc1)C(=O)O` (X14-RLIF-OH) are > 180 µM and 56.2 µM.
Turning to `CCOc1ccc(CC(=O)N[C@@H](CCCNC(=N)N)C(=O)N[C@@H](CC(C)C)C(=O)N[C@@H](CC(N)=O)C(=O)N[C@@H](Cc2ccc(F)cc2)C(=O)O)cc1OCC` (X15-RLN[Phe(4-F)]-OH), the IC50 in assay [1] stood at 3 µM; on CDK2/Cyclin A2, 5.2 µM.
On the same counts, the results for `CCOc1ccc(CC(=O)N[C@@H](CCCN=C(N)N)C(=O)N[C@@H](CC(C)C)C(=O)N[C@@H](CC(N)=O)C(=O)N[C@@H](Cc2ccc(F)cc2)C(=O)O)cc1` (X16-RLN[Phe(4-F)]-OH) are > 100 µM and > 100 µM.
On the same counts, the results for `CC[C@H](C)[C@H](NC(=O)[C@H](CC(C)C)NC(=O)[C@H](CCCN=C(N)N)NC(=O)c1ccc(Cn2cccn2)o1)C(=O)N[C@@H](Cc1ccccc1)C(=O)O` ({Furoyl(5-pyrazol-1-ylmethyl)}-RLIF-OH) are > 100 µM and > 100 µM.
`CC[C@H](C)[C@H](NC(=O)[C@H](CC(C)C)NC(=O)[C@H](CCCNC(=N)N)NC(=O)c1cccc(C)n1)C(=O)N[C@@H](Cc1ccccc1)C(=O)O` ({Picolinoyl(6-Me)}-RLIF-OH): the IC50 is 85.7 µM in assay [1] and > 100 µM at CDK2/Cyclin A2.

In general, IC50 refers to the concentration that gives 50% inhibition.
